Consider 13 molecules from ChEMBL document CHEMBL1201862, “PubChem BioAssay data set” (2004).

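Test compounds were applied to cells in 96-well plates for 48 hours at 5 doses. The concentration for 50% growth inhibition is given as GI50.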 Calls of active or inactive are those of the source. No stated cut-off is given here; in the data, active = GI50 up to about 1.1 µM and inactive = higher.

Among the test systems are SNB-75; U-251; RPMI-8226; OVCAR-3; SR; OVCAR-5; SF-295; HOP-62; K562; CCRF-CEM; UO-31; KM12; HCT-116; SK-OV-3; SF-539; UACC-62.
Assay in all cases: growth of human tumour cells (NCI), 48 h

Consider `Nc1nc(Cl)cc(NCCCCCCCCCCNc2cc(Cl)nc(N)n2)n1`, for which the GI50 with SNB-75 was 22.6 µM (inactive); in the test with U-251, 4.21 µM (inactive); in the test on RPMI-8226, 2.18 µM (inactive); in the test on OVCAR-3, 1.82 µM (inactive); in the test on SR, 2.62 µM (inactive); in the test on OVCAR-5 it was 0.043 µM (active). The GI50 is 0.301 µM (active) with SF-295; 22 µM (inactive) in the test on HOP-62; 0.0897 µM (active) in the test with K562; 18.9 µM (inactive) in the test on CCRF-CEM; 11.3 µM (inactive) with UO-31; 10.9 µM (inactive) in the test with KM12. Also, the GI50 with HCT-116 is 0.196 µM (active); with SK-OV-3, 87.3 µM (inactive); in the test with SF-539, 22.1 µM (inactive); in the test on UACC-62, 0.0226 µM (active).
On to `COC[n+]1cc2cc(OC)c(OC)cc2c2ccc3cc(OC)c(OC)cc3c21`, for which the GI50 was > 100 µM (inactive) in the test with SNB-75; > 100 µM (inactive) in the test with U-251; > 100 µM (inactive) in the test with RPMI-8226; > 100 µM (inactive) with OVCAR-3; > 10 µM (inactive) with SR; > 100 µM (inactive) in the test with OVCAR-5. The GI50 in the test with SF-295 was > 100 µM (inactive); with HOP-62, > 100 µM (inactive); in the test with K562 it was > 100 µM (inactive); in the test on CCRF-CEM, 98.2 µM (inactive); in the test with UO-31 it was > 100 µM (inactive); with KM12, > 100 µM (inactive). The GI50 with HCT-116, in the test with SF-539 and with UACC-62 was > 100 µM (inactive) in each case.
For `N#Cc1cccnc1Cl`, the GI50 is > 76.6 µM (inactive) in the test with SNB-75; > 100 µM (inactive) in the test with U-251; > 100 µM (inactive) in the test with RPMI-8226; > 100 µM (inactive) in the test on OVCAR-3; > 100 µM (inactive) in the test with SR; > 100 µM (inactive) with OVCAR-5. Besides, the GI50 in the test with SF-295 is > 100 µM (inactive); with HOP-62 it was > 31.6 µM (inactive); in the test with K562, > 100 µM (inactive); in the test on CCRF-CEM, > 100 µM (inactive); in the test with UO-31, > 100 µM (inactive); in the test with KM12 it was > 100 µM (inactive). The GI50 in the test on SK-OV-3, in the test with SF-539 and in the test with UACC-62 was > 100 µM (inactive) each time.
`O=C(/C=C/c1ccccc1O)c1ccc([N+](=O)[O-])cc1`: the GI50 is 7.8 µM (inactive) with SNB-75; 14.6 µM (inactive) in the test on U-251; 12.4 µM (inactive) with OVCAR-3; 19.4 µM (inactive) with SR; 22.1 µM (inactive) in the test on OVCAR-5; 21.7 µM (inactive) with SF-295. For the same molecule, the GI50 was 16.4 µM (inactive) in the test with HOP-62; 20.9 µM (inactive) with K562; 15.8 µM (inactive) in the test on CCRF-CEM; 19.1 µM (inactive) with UO-31; 18.5 µM (inactive) with KM12; 15.6 µM (inactive) in the test with HCT-116. Besides, the GI50 in the test with SK-OV-3 is 26.8 µM (inactive); with SF-539, 15.4 µM (inactive); in the test on UACC-62, 14.7 µM (inactive).
In the case of `O=C(N[C@@H]1C=CCC[C@@H]1c1ccccc1)OCc1ccccc1`, the GI50 in the test on SNB-75 is 19.6 µM (inactive); in the test on U-251, 17.5 µM (inactive); with RPMI-8226, 18 µM (inactive); with OVCAR-3, 16.8 µM (inactive); with SR it was 15.1 µM (inactive); in the test with OVCAR-5, 17.8 µM (inactive). Besides, the GI50 in the test with SF-295 is 20.4 µM (inactive); in the test on HOP-62, 18.5 µM (inactive); with K562, 23.7 µM (inactive); in the test on CCRF-CEM it was 16.4 µM (inactive); in the test on UO-31 it was 18.1 µM (inactive); in the test with KM12 it was 17.5 µM (inactive). In addition, the GI50 in the test with HCT-116 is 18.1 µM (inactive); in the test on SK-OV-3, 30.4 µM (inactive); with SF-539, 18.9 µM (inactive); in the test with UACC-62, 14.1 µM (inactive).
As to `COc1cc(/C=C(\NC(=O)c2ccccc2)c2nc3cncnc3[nH]2)cc(OC)c1OC`, the GI50 in the test with U-251, in the test with OVCAR-3, in the test on SR, in the test on OVCAR-5, in the test with SF-295 and with K562 was > 100 µM (inactive) throughout. Besides, the GI50 is > 100 µM (inactive) in the test with CCRF-CEM; 57.7 µM (inactive) in the test on UO-31; > 100 µM (inactive) with KM12; > 100 µM (inactive) with SK-OV-3; > 100 µM (inactive) with SF-539; > 100 µM (inactive) in the test on UACC-62.
For `NCCNC(=O)c1cccc2cc3ccccc3nc12`, the GI50 in the test with SNB-75 was 5.26 µM (inactive); with U-251 it was 2.11 µM (inactive); with RPMI-8226, 3.85 µM (inactive); in the test with OVCAR-3, 3.66 µM (inactive); in the test with SR, 0.439 µM (active); with OVCAR-5 it was 3.74 µM (inactive). The GI50 in the test on SF-295 is 2.94 µM (inactive); in the test on HOP-62, 1.86 µM (inactive); in the test with K562 it was 2.15 µM (inactive); with UO-31, 5.26 µM (inactive); in the test with KM12, 4.03 µM (inactive); with HCT-116, 1.11 µM (active). Also, the GI50 in the test with SK-OV-3 was 4.82 µM (inactive); in the test on SF-539, 4.35 µM (inactive); in the test on UACC-62, 2.75 µM (inactive).
As to `O=C(CCc1ccccc1)On1nnc2ccccc2c1=O`, the GI50 in the test with SNB-75, in the test on U-251, in the test with OVCAR-3, in the test with SR, with OVCAR-5 and with SF-295 was > 100 µM (inactive) each time. In addition, the GI50 with HOP-62, in the test with K562, with CCRF-CEM, in the test with UO-31, in the test on KM12 and in the test on HCT-116 was > 100 µM (inactive) in each case. Besides, the GI50 in the test with SK-OV-3, in the test with SF-539 and in the test with UACC-62 was > 100 µM (inactive) throughout.
With `CC(=O)OCC(=O)[C@@]1(O)CC[C@H]2[C@@H]3C[C@H](C)C4=CC(=O)C=C[C@]4(C)[C@@]3(F)[C@@H](O)C[C@@]21C`, the GI50 with SNB-75 was 73.8 µM (inactive); in the test with U-251, 60.4 µM (inactive); in the test on RPMI-8226, 23.7 µM (inactive); in the test on OVCAR-3 it was > 100 µM (inactive); in the test on SR it was 96.4 µM (inactive); in the test on OVCAR-5, 12.9 µM (inactive). Further, the GI50 in the test with SF-295 is > 100 µM (inactive); in the test with HOP-62, > 100 µM (inactive); in the test on K562, > 100 µM (inactive); with CCRF-CEM it was 5.33 µM (inactive); in the test with UO-31 it was 81.1 µM (inactive); in the test with KM12, > 100 µM (inactive). The GI50 with HCT-116 is > 100 µM (inactive); with SK-OV-3, 0.0131 µM (active); in the test with SF-539, > 100 µM (inactive); in the test on UACC-62, 80.4 µM (inactive).
`C/C(=N\NS(=O)(=O)c1ccc(C)cc1)c1ccc[n+]([O-])n1`: the GI50 with SNB-75 is 37.9 µM (inactive); in the test on U-251 it was > 100 µM (inactive); with RPMI-8226, 36.8 µM (inactive); with OVCAR-3, 39.5 µM (inactive); in the test on SR, 36.7 µM (inactive); in the test with OVCAR-5, > 100 µM (inactive). The GI50 in the test on SF-295 is > 100 µM (inactive); with HOP-62, > 100 µM (inactive); with K562 it was 26.3 µM (inactive); in the test on CCRF-CEM, 25.2 µM (inactive); in the test with UO-31 it was > 100 µM (inactive); with KM12 it was > 100 µM (inactive). Moreover, the GI50 in the test on HCT-116, with SK-OV-3, in the test with SF-539 and in the test with UACC-62 was > 100 µM (inactive) each time.
As to `O=C1C2c3[nH]c4ccccc4c3C3CCCC3C2C(=O)N1c1ccccc1` (centres undefined), the GI50 was 40.6 µM (inactive) in the test on SNB-75; > 100 µM (inactive) in the test on U-251; > 100 µM (inactive) with RPMI-8226; > 100 µM (inactive) in the test on OVCAR-3; > 100 µM (inactive) with SR; > 100 µM (inactive) with SF-295. The GI50 with K562, with CCRF-CEM, with KM12, in the test with SK-OV-3, in the test on SF-539 and in the test on UACC-62 was > 100 µM (inactive) throughout.
On to `C[C@@]1(Cc2ccccc2)C(=O)N2[C@@H](CO)C(c3ccccc3)O[C@]2(C)c2ccccc21` (some centres undefined), for which the GI50 in the test on SNB-75 was 32 µM (inactive); in the test on U-251, > 100 µM (inactive); with RPMI-8226, 76 µM (inactive); with OVCAR-3 it was > 100 µM (inactive); in the test on SR, > 100 µM (inactive); in the test on OVCAR-5, > 100 µM (inactive). Besides, the GI50 in the test with SF-295 is 72.4 µM (inactive); in the test with HOP-62, > 100 µM (inactive); in the test on K562, > 100 µM (inactive); in the test on CCRF-CEM it was 81.1 µM (inactive); in the test with UO-31, > 100 µM (inactive); with KM12, > 100 µM (inactive). Moreover, the GI50 in the test on HCT-116, in the test on SK-OV-3, with SF-539 and in the test with UACC-62 was > 100 µM (inactive) throughout.
On to `O=C1c2ccccc2C(=O)c2c1ccc(O)c2O` [ATHRAQUINONES A], for which the GI50 is 28.2 µM (inactive) in the test on SNB-75; 38.6 µM (inactive) in the test with U-251; 36.5 µM (inactive) with RPMI-8226; 32.9 µM (inactive) with OVCAR-3; 34.8 µM (inactive) in the test with SR; > 100 µM (inactive) in the test on OVCAR-5. Also, the GI50 was 57.3 µM (inactive) with SF-295; > 100 µM (inactive) in the test with HOP-62; 36.1 µM (inactive) in the test on K562; 36.6 µM (inactive) in the test on CCRF-CEM; 36.6 µM (inactive) in the test with UO-31; 57.8 µM (inactive) in the test on KM12. In addition, the GI50 in the test on HCT-116 is 32.4 µM (inactive); with SF-539, 42.6 µM (inactive); in the test with UACC-62, 25.4 µM (inactive).
